Laboratory results as given in patent US20030125314A1, “Photodynamic therapy for the treatment of epilepsy” (priority 2001, published 2003).

Assays:
hippocampal cells = experiment: PpIX fluorescence in brain sections after ALA infusion (fluorescence microscopy, Texas Red filter); conditions: 400 mg/Kg IV, 4 hours
[1] = system: CA1 and CA3 regions of the kindled hippocampus; experiment: Fluorojade histofluorescence analysis of cell death after laser-induced PDT; type: in vivo, rat; conditions: 24 hours after laser-induced PDT of ALA-treated animals
Procedure: The Wilson laboratory at the University of Toronto has previously measured apoptotic cell death at 24 hours following PDT and our Fluorojade results are consistent with their findings. Lilge et al. (2000) have shown that necrotic and apoptotic cell death are a function of the laser exposure (a variable easy to control) and not extent of ALA uptake or conversion.
Fluorojade (Histo-Chem, Inc) staining will be carried out on 20 micron cryostat-prepared brain sections. Tissue sections are mounted onto gelatinized slides and allowed to dry at room temp. Using a staining rack, slides are immersed in 100% EtOH (3 min), in 70% EtOH (1 min), in distilled water (1 min), and then in 0.06% solution of potassium permanganate (15 min, shaking gently). Slides are rinsed in distilled water, and then immersed in a 0.001% Fluoro-Jade solution (away from light, 30 min, shaking gently) following steps carried out in dim light). Still in dim light, slides are then rinsed, dried, dehydrated (xylene), and coverslipped. Stained slides, viewed with a fluorescence microscope (FITC filter), reveal apoptotic cells as brightly green.

kindled rats [2] = experiment: Beam walk test to assess paresis after photodynamic therapy; type: in vivo, rat; conditions: animals completing the photodynamic therapy protocol, compared to historic controls
Excerpt: (§1) In our study, animals completing the photodynamic therapy protocol recovered from surgery and underwent behavioral testing using the beam walk test to assess paresis and the Morris Water Maze to assess hippocampus related learning.

kindled rats [3] = experiment: Morris Water Maze after photodynamic therapy, compared to historic controls; type: in vivo, rat; conditions: animals completing the photodynamic therapy protocol
Excerpt: as §1

[4] = cited from earlier work
kindled rats [5] = experiment: Resumed daily kindling stimulations after PDT (seizure activity, after discharges); type: in vivo, rat; conditions: PDT animals, over 1 week of daily stimulation
Excerpt: We have assessed this therapy in kindled rats. Kindling is a well characterized and reproducible model for reflecting epileptogensis, the process by which a normal brain region becomes an epileptic focus. Animals are kindled with an electrode implanted into the perforant path region of the brain. Each day the animals receive a small stimulus. Initially no seizure activity is induced, but over two or three weeks, this same low level of stimulation generates increasing seizure activity until an animal has 3 consecutive tonic clonic (Stage 5) seizures. Once fully kindled, animals retain this seizure sensitivity even if not stimulated for days or months.
as §1

[6] = system: rat model of epilepsy (kindled rats); experiment: Incline Plane test (motor/grip strength) after photodynamic therapy; type: in vivo, Sprague-Dawley rats; conditions: ALA 400 mg/Kg IV, 635 nm laser 10 min, vs control groups, F(3,27)=1.616, p=0.209 between groups
Procedure: To assess behavioral outcome, thirty-one Sprague-Dawley rats were placed into four groups to test the effects of PDT treatment parameters. All animals underwent a behavioral battery that included the Morris Water Maze (MWM), selected to assess one aspect of hippocampal function, spatial learning and memory and incline plane (IP) to screen for motor injury. […] ALA (400 mg/Kg) was injected intravenously through a femoral vein catheter. […] Four hours post drug administration animals were anesthetized and stereotactically positioned. […] A 4 mm diameter was created and a laser was positioned 2.3 mm from the surface of the brain. […] Laser light was focused on the brain for 10 minutes at a wavelength of 635 nanometers. […] This test was selected because it can evaluate bilateral grip strength and we used this test to screen for any motor and/or coordination deficiencies resulting for the surgical craniectomy or laser effect on the cortex. […] Any sign of hemiparesis may indicate undesired cortical injury. […] This test involves the initial placement of the animal at a 65 degree angle to the horizontal. The flat plane can move up or down at intervals of 5 degrees, until they are at an angle where they can hold their position without sliding down. Then the opposite side is tested. Animals are evaluated on this task on days 1-4 before going on to the MWM.

[7] = system: rat model of epilepsy (kindled rats); experiment: Morris Water Maze (spatial learning and memory) after photodynamic therapy; type: in vivo, Sprague-Dawley rats; conditions: ALA 400 mg/Kg IV, 635 nm laser 10 min at 4 h, vs control animals, F(3,27)=0.920, p=0.445 between groups
Excerpt: To assess behavioral outcome, thirty-one Sprague-Dawley rats were placed into four groups to test the effects of PDT treatment parameters. All animals underwent a behavioral battery that included the Morris Water Maze (MWM), selected to assess one aspect of hippocampal function, spatial learning and memory and incline plane (IP) to screen for motor injury. […] Male Sprague-Dawley rats (275 g) had bipolar stimulating electrodes stereotactically implanted under surgical anesthesia at 7.4 mm posterior to Bregma and 4.1 lateral to the midline through a 1.5 mm craniotomy. […] ALA (400 mg/Kg) was injected intravenously through a femoral vein catheter. […] Four hours post drug administration animals were anesthetized and stereotactically positioned. […] A 4 mm diameter was created and a laser was positioned 2.3 mm from the surface of the brain. […] Laser light was focused on the brain for 10 minutes at a wavelength of 635 nanometers. […] All animals participated in the MWM test which was conducted over 5 consecutive days.

- hemiparesis (beam walk test) (kindled rats [2]): no hemiparesis
- learning impairment (Morris Water Maze) (kindled rats [3]): no hemiparesis or learning impairment
- incline plane assessment (motor performance) [6]: no difference between groups
- performance on the MWM task [7]: no significant differences
Compound: NCC(=O)CCC(=O)O [ALA, 5-aminolevulinic acid]
- ALA uptake in hippocampal cells (PpIX fluorescence) (hippocampal cells; fully kindled rats with elicited seizures vs fully kindled rats without elicited seizures and implanted controls, preliminary data): greater ALA uptake in hippocampal cells
- PpIX fluorescence (hippocampal cells; kindled rats without elicited seizures vs implanted controls, initial results): more fluorescence than implanted controls
- cell death (Fluorojade histofluorescence) [1]: selective cell death in the CA1 and CA3 regions of the kindled hippocampus
- blood-brain barrier passage ([4]; evidenced by increased PpIX concentrations in normal brain tissue after ALA administration (Hebeda, K., 1995)): can cross the blood-brain barrier
- time point of maximal uptake of ALA into brain tissue ([4]; following the ALA injection (Lilge, L., et al. 2000)): four
- seizure activity / after discharges on resumed kindling stimulation (kindled rats [5]): no seizure activity or significant after discharges
